Among the data in PubChem BioAssay (NCI) are GI50 and TGI values, retold here.

Several values for one entry are separate records, joined by “and”; a condition that tells them apart may be missing. Equal entries are not always repeated.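 Following 48 hours of exposure in 96-well plates, responses at five concentrations were used to interpolate endpoints linearly. GI50 is the concentration that inhibits growth by half. TGI is the concentration that stops growth completely.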

Some test systems named below: HCT-15 colon; IGROV1 ovarian; SR leukemia; LOX IMVI melanoma; MALME-3M melanoma; ACHN renal; MOLT-4 leukemia; COLO 205 colon; SF-295 CNS; MDA-MB-435.
Holding throughout (assay): inhibition of tumour cell growth, NCI panel, 48 h

Regarding `COc1ccc2sc3c(NCCCNCCO)nc4ccccc4c3c(=O)c2c1`, the GI50 in the test with HCT-15 colon is 1.45 µM; in the test with IGROV1 ovarian it was 1.33 µM; in the test with SR leukemia it was 1.97 µM; in the test with LOX IMVI melanoma, 1.57 µM; in the test with MALME-3M melanoma it was 1.69 µM; with ACHN renal it was 1.63 µM. The GI50 in the test with MOLT-4 leukemia was 1.93 µM; in the test with COLO 205 colon it was 1.66 µM; in the test with SF-295 CNS, 1.73 µM; in the test on MDA-MB-435, 1.61 µM. Further, the TGI with HCT-15 colon turned out to be 2.87 µM; with IGROV1 ovarian it was 2.85 µM; with SR leukemia it was 5.61 µM; in the test with LOX IMVI melanoma it was 3 µM; with MALME-3M melanoma, 3.26 µM; with ACHN renal it was 2.99 µM. Besides, the TGI in the test with MOLT-4 leukemia is 3.81 µM; with COLO 205 colon, 3.65 µM; with SF-295 CNS it was 3.15 µM; with MDA-MB-435, 3.01 µM.

Regarding `CC1(C)CC[C@]2(C(=O)O)CC[C@]3(C)[C@H](CC[C@@H]4[C@@]5(C)CCC(=O)C(C)(C)[C@@H]5CC[C@]43C)[C@H]2[C@H]1OC(=O)C(F)(F)F`, the GI50 with HCT-15 colon was 4.99 µM; in the test on IGROV1 ovarian, 18.9 µM; in the test on SR leukemia, 3.75 µM; in the test with LOX IMVI melanoma, 5.91 µM; with MALME-3M melanoma, 12.9 µM; with ACHN renal, 13.3 µM. The GI50 with MOLT-4 leukemia was 4.22 µM; with COLO 205 colon, 6.58 µM; in the test on SF-295 CNS it was 14.6 µM; in the test on MDA-MB-435 it was 10.6 µM. Moreover, the TGI came out at 18.1 µM in the test on HCT-15 colon; 40.5 µM with IGROV1 ovarian; 33.8 µM in the test on SR leukemia; 18.9 µM in the test with LOX IMVI melanoma; 30.7 µM in the test on MALME-3M melanoma; 26.1 µM in the test with ACHN renal. Further, the TGI with MOLT-4 leukemia was found to be 22.5 µM; with COLO 205 colon, 23.6 µM; with SF-295 CNS it was 30.1 µM; in the test on MDA-MB-435, 26.9 µM.

Turning to `CC(C)[C@@H](CS(=O)(=O)C(C)C)N1C(=O)[C@@](C)(CC(=O)O)C[C@H](c2cccc(Cl)c2)[C@H]1c1ccc(Cl)cc1`, the GI50 was 15.3 µM in the test with HCT-15 colon; 8.61 µM with IGROV1 ovarian; 0.249 µM in the test on SR leukemia; 0.485 µM in the test on LOX IMVI melanoma; 0.178 µM with MALME-3M melanoma; 0.394 µM with ACHN renal. The GI50 in the test with MOLT-4 leukemia is 0.338 µM; in the test on COLO 205 colon it was 14.7 µM; with SF-295 CNS, 9.09 µM; in the test on MDA-MB-435 it was 15.3 µM. Further, the TGI in the test with HCT-15 colon was > 69.3 µM; in the test on IGROV1 ovarian it was > 85.1 µM; in the test with SR leukemia it was > 40.7 µM; in the test with LOX IMVI melanoma it was 21 µM; in the test with MALME-3M melanoma, 6.91 µM; in the test with ACHN renal, 15.4 µM. Besides, the TGI with MOLT-4 leukemia turned out to be 11.1 µM; with COLO 205 colon, 34.4 µM; in the test with SF-295 CNS, 33.2 µM; in the test on MDA-MB-435 it was 45.5 µM.

As for `CC(C)(CCC(C)(C)c1ccccc1)c1ccccc1`, the TGI with HCT-15 colon amounted to 45.7 µM; in the test with IGROV1 ovarian it was 79.7 µM; in the test with SR leukemia it was 50 µM; in the test with LOX IMVI melanoma, 32 µM; with MALME-3M melanoma it was 30 µM; in the test with ACHN renal, 31.7 µM. In addition, the TGI in the test on MOLT-4 leukemia was 41.4 µM; with COLO 205 colon it was 33.5 µM; in the test with SF-295 CNS, 31.6 µM; with MDA-MB-435 it was 49.9 µM.

Turning to `COc1cc(/C=C/C(=O)c2cc(OC)c(OC)c(OC)c2)cc(OC)c1OC`, the GI50 in the test with HCT-15 colon is 3.41 µM; in the test with SR leukemia, 1.46 µM; in the test on LOX IMVI melanoma it was 2.74 µM; in the test with MALME-3M melanoma it was 2.48 µM; with ACHN renal, 4.73 µM; in the test on MOLT-4 leukemia, 2.8 µM. Also, the GI50 with COLO 205 colon is 9.09 µM; with SF-295 CNS it was 2.18 µM; with MDA-MB-435, 2.28 µM. The TGI in the test on HCT-15 colon is 62.9 µM; with SR leukemia it was 8.41 µM; with LOX IMVI melanoma, 10.9 µM; with MALME-3M melanoma, 19.6 µM; with ACHN renal, 46.8 µM; in the test with MOLT-4 leukemia it was 48.6 µM. The TGI with COLO 205 colon was found to be 25.8 µM; in the test with SF-295 CNS, 7.85 µM; with MDA-MB-435, 8.11 µM.

For `C=C1C(=O)O[C@H]2[C@H]1CC/C(COC(=O)C(=O)c1cn(C)c3ccc(OC)cc13)=C\CC[C@@]1(C)O[C@@H]21`, the GI50 was 1.75 µM in the test on HCT-15 colon; 2.27 µM in the test with IGROV1 ovarian; 2.34 µM in the test on SR leukemia; 1.57 µM with LOX IMVI melanoma; 5.62 µM in the test on MALME-3M melanoma; 3.18 µM in the test with ACHN renal. For the same molecule, the GI50 is 3.65 µM in the test with MOLT-4 leukemia, 9.35 µM with SF-295 CNS and 3.83 µM in the test with MDA-MB-435. Moreover, the TGI in the test with HCT-15 colon stood at 3.23 µM; with IGROV1 ovarian, 6.01 µM; in the test on SR leukemia, 42.5 µM; in the test with LOX IMVI melanoma, 2.62 µM; with MALME-3M melanoma, 9.91 µM; in the test on ACHN renal it was 7.79 µM. Besides, the figures for the TGI with MOLT-4 leukemia, in the test on SF-295 CNS and in the test with MDA-MB-435 were 16 µM, 21.8 µM and 9.49 µM, respectively.

On to `COc1cccc2c(Nc3ccc(C(=O)NCCN(C)C)cc3)cc(-c3ccccc3)nc12`, for which the GI50 with HCT-15 colon is 16.4 µM; in the test with IGROV1 ovarian, 10.8 µM; in the test with SR leukemia, 1.86 µM; in the test with LOX IMVI melanoma it was 18.1 µM; with MALME-3M melanoma, 20 µM; in the test on ACHN renal it was 17.6 µM. Besides, the GI50 is 11.2 µM in the test on COLO 205 colon, 22.9 µM in the test with SF-295 CNS and 22 µM in the test on MDA-MB-435. The TGI with HCT-15 colon turned out to be 38.4 µM; in the test on IGROV1 ovarian, 25.6 µM; with SR leukemia, 7.52 µM; in the test on LOX IMVI melanoma, 33.9 µM; with MALME-3M melanoma, 40.2 µM; in the test with ACHN renal, 37.9 µM. In addition, the TGI with COLO 205 colon is 26.5 µM; in the test with SF-295 CNS it was 41.4 µM; in the test on MDA-MB-435, 39.1 µM.

Turning to `COc1ccc(Cn2cc(Cn3c(=O)c(-c4nc5ccccc5[nH]4)cc4ccccc43)nn2)c(OC)c1OC`, the GI50 in the test on HCT-15 colon is 0.378 µM; with IGROV1 ovarian, 0.186 µM and 0.445 µM; in the test with SR leukemia, 0.291 µM; in the test on LOX IMVI melanoma, 0.254 µM and 0.112 µM; in the test with MALME-3M melanoma, 0.139 µM and 0.42 µM; in the test with ACHN renal it was 0.476 µM and 0.68 µM. The GI50 in the test with MOLT-4 leukemia is 0.468 µM; in the test on SF-295 CNS, 0.239 µM and 0.324 µM; with MDA-MB-435, 0.0821 µM and 0.0453 µM. Besides, the TGI is > 100 µM with HCT-15 colon; 1.84 µM and 3.66 µM in the test with IGROV1 ovarian; > 100 µM in the test on SR leukemia; 0.985 µM and 2.8 µM with MALME-3M melanoma; 1.67 µM and 4.17 µM in the test with ACHN renal; > 100 µM in the test on MOLT-4 leukemia. In addition, the TGI with SF-295 CNS is 1.19 µM and 1.94 µM; in the test on MDA-MB-435, 0.186 µM and 0.17 µM.
